Experiments:
[1] = target: T1, p300; p300-HA (Homo sapiens, UniProt Q09472); experiment: in vitro lactylation of recombinant human TFEB, anti-Kla western blot; format: biochemical; settings: acyl donor; acceptor protein TFEB (10 μg); immunoprecipitated p300-HA; 50 mM Tris-HCl pH 8.0, 30 °C, 1 h
T1 construct: gene EP300; HA-tagged p300 immunoprecipitated from transfected HEK293T cells

[2] = target: T2, NDRG3 (Homo sapiens, UniProt Q9UGV2); experiment: isothermal titration calorimetry; intrinsic tryptophan fluorescence quenching; format: binding; settings: ITC 25 °C, 10 mM lactate into 0.5 mM NDRG3; Trp quenching with sodium lactate, 100 μM protein, 10 mM NaH2PO4 pH 7.5; non-covalent; used as positive control for TFEB
T2 construct: human NDRG3 in pGEX-5X-1, GST-tagged, expressed in E. coli BL21, glutathione-Sepharose
T2 sequence (Q9UGV2 whole entry): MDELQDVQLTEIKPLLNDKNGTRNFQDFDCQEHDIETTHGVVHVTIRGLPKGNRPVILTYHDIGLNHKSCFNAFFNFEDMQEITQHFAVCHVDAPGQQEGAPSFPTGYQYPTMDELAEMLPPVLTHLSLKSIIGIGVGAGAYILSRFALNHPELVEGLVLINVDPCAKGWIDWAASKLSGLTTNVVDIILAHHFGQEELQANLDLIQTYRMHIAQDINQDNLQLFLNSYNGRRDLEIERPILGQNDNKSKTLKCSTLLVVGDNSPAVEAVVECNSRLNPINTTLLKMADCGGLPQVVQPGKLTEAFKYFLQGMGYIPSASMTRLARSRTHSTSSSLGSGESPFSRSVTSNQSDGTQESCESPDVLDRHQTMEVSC

T1 sequence (Q09472 2-2414): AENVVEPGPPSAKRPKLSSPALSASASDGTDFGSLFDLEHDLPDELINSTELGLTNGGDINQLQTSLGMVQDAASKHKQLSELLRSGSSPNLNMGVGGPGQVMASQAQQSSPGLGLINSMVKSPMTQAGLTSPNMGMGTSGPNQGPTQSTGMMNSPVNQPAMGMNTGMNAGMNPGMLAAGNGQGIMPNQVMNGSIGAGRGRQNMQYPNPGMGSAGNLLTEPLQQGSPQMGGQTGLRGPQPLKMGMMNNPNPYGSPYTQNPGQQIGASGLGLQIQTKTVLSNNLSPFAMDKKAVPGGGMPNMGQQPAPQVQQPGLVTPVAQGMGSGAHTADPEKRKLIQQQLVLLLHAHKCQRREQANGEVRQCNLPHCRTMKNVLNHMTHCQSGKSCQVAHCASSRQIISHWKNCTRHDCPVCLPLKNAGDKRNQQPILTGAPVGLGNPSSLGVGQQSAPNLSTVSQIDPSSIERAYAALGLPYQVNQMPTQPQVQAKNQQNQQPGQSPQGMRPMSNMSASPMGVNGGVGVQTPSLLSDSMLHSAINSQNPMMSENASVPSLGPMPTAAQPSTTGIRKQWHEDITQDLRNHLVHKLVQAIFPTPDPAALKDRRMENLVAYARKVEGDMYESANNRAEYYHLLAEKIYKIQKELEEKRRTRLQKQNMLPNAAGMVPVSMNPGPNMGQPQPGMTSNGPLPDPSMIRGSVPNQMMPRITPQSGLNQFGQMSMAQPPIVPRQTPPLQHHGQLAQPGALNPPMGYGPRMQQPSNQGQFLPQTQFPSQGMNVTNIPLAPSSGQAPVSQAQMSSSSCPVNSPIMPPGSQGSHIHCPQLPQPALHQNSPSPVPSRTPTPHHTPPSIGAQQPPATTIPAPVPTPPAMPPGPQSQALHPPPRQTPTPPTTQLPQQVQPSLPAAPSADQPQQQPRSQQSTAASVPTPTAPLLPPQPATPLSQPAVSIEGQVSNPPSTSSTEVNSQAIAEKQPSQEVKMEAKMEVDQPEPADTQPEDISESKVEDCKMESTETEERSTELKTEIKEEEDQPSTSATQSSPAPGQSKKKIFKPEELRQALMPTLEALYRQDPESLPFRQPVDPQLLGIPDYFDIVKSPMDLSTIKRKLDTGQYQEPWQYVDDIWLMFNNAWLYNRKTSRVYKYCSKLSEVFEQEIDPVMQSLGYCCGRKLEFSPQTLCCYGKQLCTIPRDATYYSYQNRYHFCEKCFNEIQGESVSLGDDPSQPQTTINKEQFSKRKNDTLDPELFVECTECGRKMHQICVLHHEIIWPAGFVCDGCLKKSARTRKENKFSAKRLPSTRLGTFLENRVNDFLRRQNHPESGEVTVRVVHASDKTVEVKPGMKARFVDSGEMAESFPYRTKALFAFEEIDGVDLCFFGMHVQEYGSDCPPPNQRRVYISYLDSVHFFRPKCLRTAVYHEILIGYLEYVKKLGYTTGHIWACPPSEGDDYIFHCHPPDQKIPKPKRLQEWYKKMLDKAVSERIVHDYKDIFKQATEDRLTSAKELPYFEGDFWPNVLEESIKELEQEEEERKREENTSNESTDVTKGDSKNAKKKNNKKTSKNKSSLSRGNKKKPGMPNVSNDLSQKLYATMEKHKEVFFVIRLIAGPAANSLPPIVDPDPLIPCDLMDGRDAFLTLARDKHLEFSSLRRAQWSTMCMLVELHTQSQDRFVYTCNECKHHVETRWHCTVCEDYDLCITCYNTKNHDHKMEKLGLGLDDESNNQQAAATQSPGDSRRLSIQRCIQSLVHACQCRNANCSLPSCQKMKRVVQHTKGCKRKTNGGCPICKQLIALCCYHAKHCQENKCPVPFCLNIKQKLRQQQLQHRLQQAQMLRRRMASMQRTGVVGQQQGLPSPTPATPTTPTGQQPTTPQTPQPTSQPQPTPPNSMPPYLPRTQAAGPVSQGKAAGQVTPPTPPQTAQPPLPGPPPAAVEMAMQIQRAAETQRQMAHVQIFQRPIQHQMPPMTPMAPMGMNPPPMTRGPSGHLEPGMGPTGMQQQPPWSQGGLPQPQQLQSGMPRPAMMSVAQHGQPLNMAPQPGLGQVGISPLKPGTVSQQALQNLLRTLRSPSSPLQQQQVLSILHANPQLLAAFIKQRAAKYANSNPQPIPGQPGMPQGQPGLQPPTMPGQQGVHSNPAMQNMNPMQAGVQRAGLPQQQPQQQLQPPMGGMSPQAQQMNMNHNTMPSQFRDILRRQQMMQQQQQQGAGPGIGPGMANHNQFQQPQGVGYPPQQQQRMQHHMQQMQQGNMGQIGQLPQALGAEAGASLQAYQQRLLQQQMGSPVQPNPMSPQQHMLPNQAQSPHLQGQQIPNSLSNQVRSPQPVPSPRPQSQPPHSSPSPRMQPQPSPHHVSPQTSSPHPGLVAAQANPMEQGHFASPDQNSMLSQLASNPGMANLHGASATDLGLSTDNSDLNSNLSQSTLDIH

| Compound | in vitro lactylation of recombinant human TFEB, anti-Kla western blot [1] | isothermal titration calorimetry; intrinsic tryptophan fluorescence quenching [2] |
| --- | --- | --- |
| C[C@H](O)C(=O)SCCNC(=O)CCNC(=O)[C@H](O)C(C)(C)COP(=O)(O)OP(=O)(O)OC[C@H]1O[C@@H](n2cnc3c(N)ncnc32)[C@H](O)[C@@H]1OP(=O)(O)O [L-lactyl-CoA] | lactylation was observed in TFEB incubated with p300-HA instead of transferase-inactivated p300-WY-HA | – |
| C[C@H](O)C(=O)O [lactate] | – | sodium lactate resulted in the fixed tryptophan fluorescence quenching of purified NDRG3 |
